According to ChEMBL document CHEMBL5143590, “Dihydropyrimidinone imidazoles as unique structural antibacterial agents for drug-resistant gram-negative pathogens” (Eur J Med Chem, 2022):
≈ marks a conversion by molar mass, not a printed value. Calls of active or inactive are those of the source. The rule behind the calls is not given here.

Key:
[1] = test system: Enterococcus faecalis; experiment: Antibacterial activity against Enterococcus faecalis assessed as inhibition of bacterial growth by two fold serial dilution method; assay type: functional
[2] = test system: Acinetobacter baumannii; experiment: Anti- biofilm activity against Acinetobacter baumannii assessed as inhibition of biofilm formation at 1 time MIC relative to control; assay type: functional; parameters: scale not given: the % may be the effect or the level left
[3] = test system: Cell membrane; experiment: Induction of cytoplasmic membrane depolarization in Acinetobacter baumannii assessed as increase in fluorescence intensity at 0.5 to 4 times MIC and measured up to 100 mins by DiSC35 dye based fluorescence method; assay type: subcellular; conditions: TDE = time-dependent effect
[4] = test system: Cell membrane; experiment: Induction of inner membrane damage in Klebsiella pneumoniae assessed as disruption of membrane integrity at 0.25 to 2 ug/ml by propidium iodide staining based fluorescence analysis; assay type: subcellular; conditions: dose 0.25-2 µg/ml
[5] = test system: Escherichia coli; experiment: Antibacterial activity against Escherichia coli 25922 assessed as inhibition of bacterial growth by two fold serial dilution method; assay type: functional
[6] = test system: Acinetobacter baumannii; experiment: Antioxidant activity in Acinetobacter baumannii assessed as loss of GSH activity at 1 to 8 times MIC; assay type: functional, organism-based
[7] = test system: Cell membrane; experiment: Induction of inner membrane damage in Acinetobacter baumannii assessed as disruption of membrane integrity at 0.25 to 2 ug/ml by propidium iodide staining based fluorescence analysis; assay type: subcellular; conditions: dose 0.25-2 µg/ml
[8] = test system: Acinetobacter baumannii; experiment: Induction of ROS generation in Acinetobacter baumannii assessed as ROS accumulation at 1 to 8 times MIC by DCFH-DA dye based fluorescence assay; assay type: functional, organism-based; conditions: DDE = dose-dependent effect
[9] = test system: Acinetobacter baumannii; experiment: Anti- biofilm activity against Acinetobacter baumannii assessed as biofilm viability at 1 time MIC relative to control; assay type: functional
[10] = test system: Calf thymus DNA; experiment: Binding affinity to calf thymus DNA assessed as assessed as compound-DNA complex formation by measuring red shift by UV-visible absorption spectrophotometric method; assay type: nucleic-acid assay; conditions: Bos taurus
[11] = test system: Acinetobacter baumannii; experiment: Anti- biofilm activity against Acinetobacter baumannii assessed as inhibition of biofilm formation at 2 times MIC relative to control; assay type: functional; parameters: scale not given: the % may be the effect or the level left
[12] = test system: Klebsiella pneumoniae; experiment: Induction of morphological changes in Klebsiella pneumoniae assessed as shrunken cell membrane at 2 times MIC for 4 hrs by SEM analysis; assay type: functional, organism-based
[13] = test system: Acinetobacter baumannii; experiment: Bactericidal activity against Acinetobacter baumannii assessed as reduction in bacterial growth at 4 times MIC and measured within 2 hrs by time-kill kinetic assay relative to control; assay type: functional; parameters: scale not given: the % may be the effect or the level left
[14] = test system: Klebsiella pneumoniae; experiment: Anti- biofilm activity against Klebsiella pneumoniae assessed as inhibition of biofilm formation at 2 times MIC relative to control; assay type: functional; parameters: scale not given: the % may be the effect or the level left
[15] = test system: Klebsiella pneumoniae; experiment: Induction of morphological changes in Klebsiella pneumoniae assessed as cell lysis at 2 times MIC for 4 hrs by TEM analysis; assay type: functional, organism-based
[16] = test system: Klebsiella pneumoniae; experiment: Anti- biofilm activity against Klebsiella pneumoniae assessed as biofilm viability at 6 times MIC relative to control; assay type: functional
[17] = test system: Cell membrane; experiment: Induction of outer membrane permeabilization in Acinetobacter baumannii assessed as increase in fluorescence intensity at 4 times MIC by NPN-dye based fluorescence analysis; assay type: subcellular
[18] = test system: Klebsiella pneumoniae; experiment: Anti- biofilm activity against Klebsiella pneumoniae assessed as inhibition of biofilm formation at 6 times MIC relative to control; assay type: functional; parameters: scale not given: the % may be the effect or the level left
[19] = test system: Acinetobacter baumannii; experiment: Antibacterial activity against Acinetobacter baumannii assessed as inhibition of bacterial growth by two fold serial dilution method; assay type: functional
[20] = test system: Cell membrane; experiment: Induction of cytoplasmic membrane depolarization in Acinetobacter baumannii assessed as increase in fluorescence intensity at 0.5 to 4 times MIC by DiSC35 dye based fluorescence method; conditions: DDE = dose-dependent effect
[21] = test system: Pseudomonas aeruginosa; experiment: Antibacterial activity against Pseudomonas aeruginosa assessed as inhibition of bacterial growth by two fold serial dilution method; assay type: functional
[22] = test system: Klebsiella pneumoniae; experiment: Induction of morphological changes in Klebsiella pneumoniae assessed as cytoplasmic sparsity at 2 times MIC for 4 hrs by TEM analysis; assay type: functional, organism-based
[23] = test system: Staphylococcus aureus; experiment: Antibacterial activity against Staphylococcus aureus 29213 assessed as inhibition of bacterial growth by two fold serial dilution method; assay type: functional
[24] = test system: Klebsiella pneumoniae; experiment: Antioxidant activity in Klebsiella pneumoniae assessed as loss of GSH activity at 1 to 8 times MIC; assay type: functional, organism-based
[25] = test system: Klebsiella pneumoniae; experiment: Antibacterial activity against Klebsiella pneumoniae assessed as inhibition of bacterial growth by two fold serial dilution method; assay type: functional
[26] = test system: Cell membrane; experiment: Induction of cytoplasmic membrane depolarization in Klebsiella pneumoniae assessed as increase in fluorescence intensity at 0.5 to 4 times MIC and measured up to 100 mins by DiSC35 dye based fluorescence method; assay type: subcellular; conditions: TDE = time-dependent effect
[27] = test system: Cell membrane; experiment: Induction of outer membrane permeabilization in Klebsiella pneumoniae assessed as increase in NPN fluorescence at 4 times MIC by NPN-dye based fluorescence analysis; assay type: subcellular
[28] = test system: Acinetobacter baumannii; experiment: Anti- biofilm activity against Acinetobacter baumannii assessed as inhibition of biofilm formation at 6 times MIC relative to control; assay type: functional; parameters: scale not given: the % may be the effect or the level left
[29] = test system: Klebsiella pneumoniae; experiment: Induction of morphological changes in Klebsiella pneumoniae assessed as membrane rupture at 2 times MIC for 4 hrs by TEM analysis; assay type: functional, organism-based
[30] = test system: Klebsiella pneumoniae; experiment: Induction of ROS generation in Klebsiella pneumoniae assessed as ROS accumulation at 1 to 8 times MIC by DCFH-DA dye based fluorescence assay; assay type: functional, organism-based; conditions: DDE = dose-dependent effect
[31] = test system: Acinetobacter baumannii; experiment: Anti- biofilm activity against Acinetobacter baumannii assessed as inhibition of biofilm formation at 4 times MIC relative to control; assay type: functional; parameters: scale not given: the % may be the effect or the level left
[32] = test system: Staphylococcus aureus; experiment: Antibacterial activity against methicillin-resistant Staphylococcus aureus N315 assessed as inhibition of bacterial growth by two fold serial dilution method; assay type: functional
[33] = test system: Klebsiella pneumoniae; experiment: Bactericidal activity against Klebsiella pneumoniae assessed as reduction in bacterial growth at MIC and measured within 2 hrs by time-kill kinetic assay; assay type: functional
[34] = test system: Klebsiella pneumoniae; experiment: Anti- biofilm activity against Klebsiella pneumoniae assessed as biofilm viability at 2 times MIC relative to control; assay type: functional
[35] = test system: Klebsiella pneumoniae; experiment: Bactericidal activity against Klebsiella pneumoniae assessed as reduction in bacterial growth at 4 times MIC and measured within 2 hrs by time-kill kinetic assay relative to control; assay type: functional; parameters: scale not given: the % may be the effect or the level left
[36] = test system: Klebsiella pneumoniae; experiment: Anti- biofilm activity against Klebsiella pneumoniae assessed as biofilm viability at 1 time MIC relative to control; assay type: functional
[37] = test system: Staphylococcus aureus; experiment: Antibacterial activity against Staphylococcus aureus 25923 assessed as inhibition of bacterial growth by two fold serial dilution method; assay type: functional
[38] = test system: Klebsiella pneumoniae; experiment: Anti- biofilm activity against Klebsiella pneumoniae assessed as inhibition of biofilm formation at 4 times MIC relative to control; assay type: functional; parameters: scale not given: the % may be the effect or the level left
[39] = Cytotoxicity against human HepG2 cells assessed as viable cells upto 40 ug/ml relative to control; assay type: toxicity, cell-based; conditions: up to 40 µg/mL, read-out: Activity
[40] = test system: Klebsiella pneumoniae; experiment: Induction of morphological changes in Klebsiella pneumoniae assessed as appearance of broken cell membrane at 2 times MIC for 4 hrs by SEM analysis; assay type: functional, organism-based
[41] = test system: Cell membrane; experiment: Induction of cytoplasmic membrane depolarization in Klebsiella pneumoniae assessed as increase in fluorescence intensity at 0.5 to 4 times MIC by DiSC35 dye based fluorescence method; conditions: DDE = dose-dependent effect
[42] = test system: Escherichia coli; experiment: Antibacterial activity against Escherichia coli assessed as inhibition of bacterial growth by two fold serial dilution method; assay type: functional
[43] = test system: Acinetobacter baumannii; experiment: Anti- biofilm activity against Acinetobacter baumannii assessed as biofilm viability at 6 times MIC relative to control; assay type: functional
[44] = test system: Erythrocyte; experiment: Hemolytic activity in human RBC assessed as hemolysis at 512 ug/ml; assay type: toxicity, cell-based; conditions: dose 512 µg/ml
[45] = Cytotoxicity against human endothelial cells assessed as viable cells upto 40 ug/ml relative to control; assay type: toxicity, cell-based, Endothelial cell; conditions: up to 40 µg/mL, read-out: Activity
[46] = test system: Pseudomonas aeruginosa; experiment: Antibacterial activity against Pseudomonas aeruginosa 27853 assessed as inhibition of bacterial growth by two fold serial dilution method; assay type: functional
[47] = test system: Acinetobacter baumannii; experiment: Anti- biofilm activity against Acinetobacter baumannii assessed as biofilm viability at 2 times MIC relative to control; assay type: functional
[48] = test system: Staphylococcus aureus; experiment: Antibacterial activity against Staphylococcus aureus assessed as inhibition of bacterial growth by two fold serial dilution method; assay type: functional
[49] = test system: Acinetobacter baumannii; experiment: Anti- biofilm activity against Acinetobacter baumannii assessed as biofilm viability at 4 times MIC relative to control; assay type: functional
[50] = test system: Acinetobacter baumannii; experiment: Bactericidal activity against Acinetobacter baumannii assessed as reduction in bacterial growth at MIC and measured within 2 hrs by time-kill kinetic assay; assay type: functional
[51] = test system: Calf thymus DNA; experiment: Binding affinity to calf thymus DNA assessed as reduction in fluorescence intensity of DNA-acridine orange complex by acridine orange dye based fluorescence analysis; assay type: nucleic-acid assay; conditions: Bos taurus
[52] = test system: Klebsiella pneumoniae; experiment: Anti- biofilm activity against Klebsiella pneumoniae assessed as inhibition of biofilm formation at 1 time MIC relative to control; assay type: functional; parameters: scale not given: the % may be the effect or the level left
[53] = test system: Klebsiella pneumoniae; experiment: Anti- biofilm activity against Klebsiella pneumoniae assessed as biofilm viability at 4 times MIC relative to control; assay type: functional

Compound: CCCCc1nc(Cl)c(C2NC(=O)NC(CN(c3cc(C)no3)S(=O)(=O)c3ccc(N)cc3)=C2C(=O)OCC)[nH]1 (stereo not drawn)
- MIC [1]: 16 µg/mL (≈ 27 µM)
- Activity [2]: 21%
- Activity [3]: Tde
- Activity [4]: Active
- MIC [5]: 1 µg/mL (≈ 1.69 µM)
- Activity [6]: Active
- Activity [7]: Active
- Activity [8]: Dde
- Activity [9]: 87%
- Activity [10]: Active
- Activity [11]: 30%
- Activity [12]: Active
- Activity [13]: 66.7%
- Activity [14]: 66%
- Activity [15]: Active
- Activity [16]: 36%
- Activity [17]: Active
- Activity [18]: 89%
- MIC [19]: 0.5 µg/mL (≈ 0.844 µM)
- Activity [20]: Dde
- MIC [21]: 4 µg/mL (≈ 6.76 µM)
- Activity [22]: Active
- MIC [23]: 2 µg/mL (≈ 3.38 µM)
- Activity [24]: Active
- MIC [25]: 0.5 µg/mL (≈ 0.844 µM)
- Activity [26]: Tde
- Activity [27]: Active
- Activity [28]: 84%
- Activity [29]: Active
- Activity [30]: Dde
- Activity [31]: 58%
- MIC [32]: 4 µg/mL (≈ 6.76 µM)
- Activity [33]: 2.5 log10CFU/ml
- Activity [34]: 76%
- Activity [35]: 66.7%
- Activity [36]: 85%
- MIC [37]: 8 µg/mL (≈ 13.5 µM)
- Activity [38]: 82%
- viability [39]: > 50%
- Activity [40]: Active
- Activity [41]: Dde
- MIC [42]: 2 µg/mL (≈ 3.38 µM)
- Activity [43]: 41%
- Activity [44]: Non-Toxic
- viability [45]: > 50%
- MIC [46]: 4 µg/mL (≈ 6.76 µM)
- Activity [47]: 83%
- MIC [48]: 2 µg/mL (≈ 3.38 µM)
- Activity [49]: 70%
- Activity [50]: 2.4 log10CFU/ml
- Activity [51]: Active
- Activity [52]: 30%
- Activity [53]: 62%
